Experimental data reported in ChEMBL document CHEMBL1687773 (Antimicrob Agents Chemother, 2010).
Calls of active or inactive are those of the source. The rule behind the calls is not given here.

What was measured:
[1] = target: Opioid receptors; mu/kappa/delta (Homo sapiens) (UniProt P41145+P41143+P35372); assay: Inhibition of human non-selective opioid receptor at up to 10 uM
[2] = test system: Human immunodeficiency virus type 1 reverse transcriptase (Human immunodeficiency virus 1), Q72547 [Y181I]; assay: Inhibition of HIV1 histidine-tagged reverse transcriptase Y181I mutant activity by primer extension assay
[3] = target: Human immunodeficiency virus type 1 reverse transcriptase (Human immunodeficiency virus 1, UniProt Q72547, K103N); assay: Inhibition of HIV1 HXB2 reverse transcriptase K103N mutant activity by primer extension assay
[4] = test system: Human immunodeficiency virus 1; assay: Antiviral activity against HIV1 NL4-3 harboring reverse transcriptase V106A mutant infected in human HeLaP4 cells assessed as inhibition of viral replication after 5 days by beta-galactosidase reporter assay; type: functional, organism-based
[5] = organism: Homo sapiens; assay: Inhibition of human central benzodiazepine receptor at up to 10 uM
[6] = test system: Human immunodeficiency virus 1; assay: Antiviral activity against HIV1 NL4-3 infected in human SupT1 cells derived from 11 viral passages assessed as inhibition of viral replication after 21 days relative to drug sensitive HIV1 NL4-3; type: functional, SUP-T1
[7] = target: Amine oxidase [flavin-containing] A (Homo sapiens, UniProt P21397); assay: Inhibition of human MAO-A at up to 10 uM
Amine oxidase [flavin-containing] A, sequence (P21397 whole entry): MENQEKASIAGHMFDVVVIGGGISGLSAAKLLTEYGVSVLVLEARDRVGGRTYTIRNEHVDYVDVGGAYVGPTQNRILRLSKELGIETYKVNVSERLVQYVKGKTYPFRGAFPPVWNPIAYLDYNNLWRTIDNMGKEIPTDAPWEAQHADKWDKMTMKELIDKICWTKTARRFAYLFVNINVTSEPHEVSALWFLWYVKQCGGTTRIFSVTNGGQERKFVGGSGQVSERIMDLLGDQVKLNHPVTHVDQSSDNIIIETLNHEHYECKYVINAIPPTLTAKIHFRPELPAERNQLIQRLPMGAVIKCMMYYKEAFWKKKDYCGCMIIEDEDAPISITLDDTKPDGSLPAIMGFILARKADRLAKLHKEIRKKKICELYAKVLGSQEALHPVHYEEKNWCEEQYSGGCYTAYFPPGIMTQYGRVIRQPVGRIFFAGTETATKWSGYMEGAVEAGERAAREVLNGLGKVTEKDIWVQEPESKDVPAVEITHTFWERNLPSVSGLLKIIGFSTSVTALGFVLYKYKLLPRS

[8] = target: Acetylcholinesterase (Homo sapiens) (UniProt P22303); assay: Inhibition of human acetylcholinesterase at up to 10 uM
Acetylcholinesterase (Homo sapiens), sequence (P22303 whole entry): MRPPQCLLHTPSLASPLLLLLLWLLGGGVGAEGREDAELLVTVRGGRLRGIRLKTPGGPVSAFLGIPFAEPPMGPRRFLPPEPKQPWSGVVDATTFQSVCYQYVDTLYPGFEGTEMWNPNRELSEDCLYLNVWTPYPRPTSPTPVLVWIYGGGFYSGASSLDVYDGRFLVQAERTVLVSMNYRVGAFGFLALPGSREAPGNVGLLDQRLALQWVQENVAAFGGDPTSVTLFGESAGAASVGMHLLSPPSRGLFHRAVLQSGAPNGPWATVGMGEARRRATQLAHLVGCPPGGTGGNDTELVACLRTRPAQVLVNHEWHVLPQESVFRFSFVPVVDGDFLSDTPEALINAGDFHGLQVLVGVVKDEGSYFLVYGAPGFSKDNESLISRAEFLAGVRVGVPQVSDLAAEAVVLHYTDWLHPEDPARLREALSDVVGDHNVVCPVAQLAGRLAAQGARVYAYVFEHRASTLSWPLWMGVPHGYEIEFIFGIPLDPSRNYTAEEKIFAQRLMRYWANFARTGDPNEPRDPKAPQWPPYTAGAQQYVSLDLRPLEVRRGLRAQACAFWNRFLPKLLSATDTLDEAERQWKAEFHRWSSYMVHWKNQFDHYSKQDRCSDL

[9] = test system: Human immunodeficiency virus 1; assay: Antiviral activity against HIV1 NL4-3 harboring reverse transcriptase K103N mutant infected in human HeLaP4 cells assessed as inhibition of viral replication after 5 days by beta-galactosidase reporter assay; type: functional, organism-based; details: Human immunodeficiency virus 1, NL4-3, HeLaP4, 120 h
[10] = test system: Human immunodeficiency virus 1; assay: Antiviral activity against HIV1 NL4-3 infected in human MT2 cells assessed as inhibition of virus-induced cell death at 0.5 multiplicities of infection after 6 days; type: functional, organism-based; details: Human immunodeficiency virus 1, NL4-3, MT2, 144 h
[11] = test system: Human immunodeficiency virus 1; assay: Antiviral activity against HIV1 NL4-3 harboring reverse transcriptase K101E mutant infected in human HeLaP4 cells assessed as inhibition of viral replication after 5 days by beta-galactosidase reporter assay; type: functional, organism-based
[12] = target: Adenosine receptor A1 (Homo sapiens) (UniProt P30542); assay: Inhibition of human adenosine A1 receptor at up to 10 uM
Adenosine receptor A1 (Homo sapiens), sequence (P30542 whole entry): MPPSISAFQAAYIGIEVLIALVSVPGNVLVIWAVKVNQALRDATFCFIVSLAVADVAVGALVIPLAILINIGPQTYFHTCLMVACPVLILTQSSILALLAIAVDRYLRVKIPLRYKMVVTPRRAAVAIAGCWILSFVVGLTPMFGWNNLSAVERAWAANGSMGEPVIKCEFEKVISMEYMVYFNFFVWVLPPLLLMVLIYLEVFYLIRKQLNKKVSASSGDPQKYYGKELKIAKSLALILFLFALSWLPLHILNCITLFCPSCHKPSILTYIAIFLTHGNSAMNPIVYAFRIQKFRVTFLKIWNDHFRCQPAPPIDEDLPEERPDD

[13] = test system: Human immunodeficiency virus 1; assay: Ratio of EC50 for wild type HIV1 NL4-3 to EC50 for HIV1 NL4-3 harboring reverse transcriptase Y188C mutant; type: functional
[14] = organism: Homo sapiens; assay: Inhibition of human Phosphodiesterase 3 at up to 10 uM
[15] = test system: Human immunodeficiency virus 1; assay: Ratio of EC50 for wild type HIV1 NL4-3 to EC50 for HIV1 NL4-3 harboring reverse transcriptase Y181I mutant; type: functional
[16] = target: D(1A) dopamine receptor (Homo sapiens) (UniProt P21728); assay: Inhibition of human dopamine D1 receptor at up to 10 uM
D(1A) dopamine receptor (Homo sapiens), sequence (P21728 whole entry): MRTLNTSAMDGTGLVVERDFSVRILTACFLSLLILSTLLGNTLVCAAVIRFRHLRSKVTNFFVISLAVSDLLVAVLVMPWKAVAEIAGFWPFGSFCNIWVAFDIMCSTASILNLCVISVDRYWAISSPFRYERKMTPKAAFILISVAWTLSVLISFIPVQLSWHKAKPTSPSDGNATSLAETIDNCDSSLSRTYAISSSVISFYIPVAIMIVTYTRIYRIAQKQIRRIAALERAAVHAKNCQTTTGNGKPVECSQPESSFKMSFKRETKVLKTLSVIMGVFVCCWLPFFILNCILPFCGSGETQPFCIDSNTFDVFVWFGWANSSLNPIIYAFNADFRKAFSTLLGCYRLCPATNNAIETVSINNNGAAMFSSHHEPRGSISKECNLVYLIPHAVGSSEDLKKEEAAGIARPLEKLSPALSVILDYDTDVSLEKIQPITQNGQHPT

[17] = target: Type-1 angiotensin II receptor (Homo sapiens) (UniProt P30556); assay: Inhibition of human AT1 receptor at up to 10 uM
Type-1 angiotensin II receptor (Homo sapiens), sequence (P30556 whole entry): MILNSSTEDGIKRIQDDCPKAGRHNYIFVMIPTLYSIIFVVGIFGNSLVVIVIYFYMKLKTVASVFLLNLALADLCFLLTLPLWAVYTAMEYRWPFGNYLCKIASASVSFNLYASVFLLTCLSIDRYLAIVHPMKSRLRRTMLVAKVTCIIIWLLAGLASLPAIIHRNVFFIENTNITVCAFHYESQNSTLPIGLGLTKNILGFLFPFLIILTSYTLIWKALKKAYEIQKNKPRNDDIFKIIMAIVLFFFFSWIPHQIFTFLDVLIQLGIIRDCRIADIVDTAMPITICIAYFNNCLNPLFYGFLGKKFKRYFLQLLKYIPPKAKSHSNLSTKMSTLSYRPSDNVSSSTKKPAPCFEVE

[18] = test system: Human immunodeficiency virus 1; assay: Ratio of EC50 for wild type HIV1 NL4-3 to EC50 for HIV1 NL4-3 harboring reverse transcriptase L234I mutant; type: functional
[19] = test system: Human immunodeficiency virus type 1 reverse transcriptase (Human immunodeficiency virus 1), Q72547 [V106A]; assay: Inhibition of HIV1 histidine-tagged reverse transcriptase V106A mutant activity by primer extension assay
[20] = target: Adrenergic receptor alpha-2 (Homo sapiens) (UniProt P08913+P18825+P18089); assay: Inhibition of human adrenergic alpha2 receptor at up to 10 uM
[21] = Ratio of CC30 for human HeLaP4 cells to EC90 for HIV1
[22] = target: Muscarinic acetylcholine receptor (Homo sapiens) (UniProt P20309+P08173+P11229+P08172+P08912); assay: Inhibition of human non-selective muscarinic receptor at up to 10 uM; type: protein assay
[23] = test system: PBMC; assay: Cytotoxicity against human PBMC cells by aqueous nonradioactive cell proliferation assay; type: cell-based
[24] = test system: Human immunodeficiency virus type 1 reverse transcriptase (Human immunodeficiency virus 1), Q72547 [P236L]; assay: Inhibition of HIV1 histidine-tagged reverse transcriptase P236L mutant activity by primer extension assay
[25] = organism: Homo sapiens; assay: Inhibition of human L-type calcium channel verapamil binding site at up to 10 uM
[26] = test system: Human immunodeficiency virus 1; assay: Ratio of EC50 for wild type HIV1 NL4-3 to EC50 for HIV1 NL4-3 harboring reverse transcriptase F227C mutant; type: functional
[27] = test system: Human immunodeficiency virus 1; assay: Antiviral activity against HIV1 NL4-3 harboring reverse transcriptase P236L mutant infected in human HeLaP4 cells assessed as inhibition of viral replication after 5 days by beta-galactosidase reporter assay; type: functional, organism-based
[28] = test system: Human immunodeficiency virus 1; assay: Ratio of EC50 for wild type HIV1 NL4-3 to EC50 for HIV1 NL4-3 harboring reverse transcriptase K103N mutant; type: functional
[29] = target: Beta-1 adrenergic receptor (Homo sapiens) (UniProt P08588); assay: Inhibition of human adrenergic beta1 receptor at up to 10 uM
Beta-1 adrenergic receptor (Homo sapiens), sequence (P08588 whole entry, looked up): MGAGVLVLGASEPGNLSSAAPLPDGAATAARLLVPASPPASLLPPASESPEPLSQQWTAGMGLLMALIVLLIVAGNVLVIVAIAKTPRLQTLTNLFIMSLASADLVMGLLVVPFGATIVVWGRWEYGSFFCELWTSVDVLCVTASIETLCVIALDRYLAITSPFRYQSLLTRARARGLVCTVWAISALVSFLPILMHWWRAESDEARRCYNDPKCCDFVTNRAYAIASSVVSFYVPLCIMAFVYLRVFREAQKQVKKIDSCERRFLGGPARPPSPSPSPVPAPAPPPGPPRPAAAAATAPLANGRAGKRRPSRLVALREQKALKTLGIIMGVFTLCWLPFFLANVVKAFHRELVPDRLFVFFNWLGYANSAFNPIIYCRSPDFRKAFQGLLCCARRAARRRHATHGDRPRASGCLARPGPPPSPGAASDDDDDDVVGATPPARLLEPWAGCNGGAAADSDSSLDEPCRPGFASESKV

[30] = test system: Human immunodeficiency virus type 1 reverse transcriptase (Human immunodeficiency virus 1), Q72547 [F227L]; assay: Inhibition of HIV1 histidine-tagged reverse transcriptase F227L mutant activity by primer extension assay
[31] = test system: Human immunodeficiency virus 1; assay: Ratio of EC50 for wild type HIV1 NL4-3 to EC50 for HIV1 NL4-3 harboring reverse transcriptase E233V mutant; type: functional
[32] = Ratio of CC30 for human PBL cells to EC90 for HIV1
[33] = test system: Human immunodeficiency virus 1; assay: Ratio of EC50 for wild type HIV1 NL4-3 to EC50 for HIV1 NL4-3 harboring reverse transcriptase L100I mutant; type: functional
[34] = test system: Human immunodeficiency virus 1; assay: Antiviral activity against HIV1 NL4-3 harboring reverse transcriptase L100I mutant infected in human HeLaP4 cells assessed as inhibition of viral replication after 5 days by beta-galactosidase reporter assay; type: functional, organism-based
[35] = test system: Human immunodeficiency virus 1; assay: Antiviral activity against HIV1 NL4-3 harboring reverse transcriptase L100I, K103Q, H221H/Y mutant infected in human SupT1 cells derived from 11 viral passages with efavirenz assessed as inhibition of viral replication after 21 days relative to drug sensitive HIV1 NL4-3; type: functional, SUP-T1
[36] = test system: Human immunodeficiency virus type 1 reverse transcriptase (Human immunodeficiency virus 1), Q72547 [E138K]; assay: Inhibition of HIV1 histidine-tagged reverse transcriptase E138K mutant activity by primer extension assay
[37] = test system: Human immunodeficiency virus 1; assay: Antiviral activity against HIV1 NL4-3 harboring reverse transcriptase Y188C mutant infected in human HeLaP4 cells assessed as inhibition of viral replication after 5 days by beta-galactosidase reporter assay; type: functional, organism-based
[38] = test system: Human immunodeficiency virus 1; assay: Ratio of EC50 for wild type HIV1 NL4-3 to EC50 for HIV1 NL4-3 harboring reverse transcriptase M184V mutant; type: functional
[39] = test system: Human immunodeficiency virus 1; type: functional, organism-based; details: NL4-3, HeLaP4
[40] = organism: Homo sapiens; assay: Inhibition of human L-type calcium channel diltiazem binding site at up to 10 uM

Opioid receptors; mu/kappa/delta (Homo sapiens), sequence (P35372 whole entry, looked up): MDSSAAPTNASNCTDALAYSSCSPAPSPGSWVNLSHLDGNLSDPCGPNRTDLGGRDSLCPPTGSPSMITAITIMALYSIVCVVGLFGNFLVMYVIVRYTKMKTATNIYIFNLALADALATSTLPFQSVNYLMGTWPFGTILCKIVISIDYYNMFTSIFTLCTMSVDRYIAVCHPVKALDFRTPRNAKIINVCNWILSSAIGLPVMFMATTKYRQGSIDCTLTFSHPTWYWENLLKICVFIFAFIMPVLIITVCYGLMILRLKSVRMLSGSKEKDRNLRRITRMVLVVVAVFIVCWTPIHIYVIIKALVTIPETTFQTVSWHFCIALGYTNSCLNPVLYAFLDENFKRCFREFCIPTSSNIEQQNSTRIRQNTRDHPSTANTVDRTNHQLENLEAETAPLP
Opioid receptors; mu/kappa/delta (Homo sapiens), sequence (P41143 whole entry, looked up): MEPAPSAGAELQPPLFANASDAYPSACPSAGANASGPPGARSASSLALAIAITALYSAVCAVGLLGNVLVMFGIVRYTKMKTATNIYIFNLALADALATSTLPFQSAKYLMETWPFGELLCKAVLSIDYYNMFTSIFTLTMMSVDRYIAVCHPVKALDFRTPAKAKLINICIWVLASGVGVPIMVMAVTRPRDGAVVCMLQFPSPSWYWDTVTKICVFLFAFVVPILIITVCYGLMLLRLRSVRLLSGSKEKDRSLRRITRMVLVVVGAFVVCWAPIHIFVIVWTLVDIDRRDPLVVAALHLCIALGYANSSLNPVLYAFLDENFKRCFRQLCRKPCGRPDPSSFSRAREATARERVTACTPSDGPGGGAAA
Opioid receptors; mu/kappa/delta (Homo sapiens), sequence (P41145 whole entry, looked up): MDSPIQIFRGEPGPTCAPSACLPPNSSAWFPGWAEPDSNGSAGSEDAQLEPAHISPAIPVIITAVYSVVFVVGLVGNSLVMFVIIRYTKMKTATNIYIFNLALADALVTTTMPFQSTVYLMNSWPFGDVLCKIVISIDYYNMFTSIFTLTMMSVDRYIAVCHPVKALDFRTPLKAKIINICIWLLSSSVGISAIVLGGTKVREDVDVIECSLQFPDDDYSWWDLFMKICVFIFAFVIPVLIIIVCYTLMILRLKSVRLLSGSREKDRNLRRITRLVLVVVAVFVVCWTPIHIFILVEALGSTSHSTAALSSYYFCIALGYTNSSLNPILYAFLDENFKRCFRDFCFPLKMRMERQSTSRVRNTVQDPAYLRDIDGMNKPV

## CCc1nn(CCO)c(CC)c1Oc1cc(C#N)cc(C#N)c1 [LERSIVIRINE]
[1]
  inhibition: inactive
[2]
  inhibition: Active
[3]
  IC50: 215 nM
[4]
  inhibition: Active
[5]
  inhibition: inactive
[6]
  fold change (FC): 0.6
[7]
  inhibition (INH): Not Active
[8]
  inhibition: inactive
[9]
  EC50: 7.05 nM
[10]
  EC50: 0.5 nM
[11]
  inhibition: Active
[12]
  inhibition: inactive
[13]
  Ratio EC50: 10
[14]
  inhibition: inactive
[15]
  Ratio EC50: 10
[16]
  inhibition: inactive
[17]
  inhibition: inactive
[18]
  Ratio EC50: 20
[19]
  inhibition: Active
[20]
  inhibition: inactive
[21]
  Ratio: >7092
[22]
  inhibition: inactive
[23]
  CC30: 96900 nM
[24]
  inhibition: Active
[25]
  inhibition: inactive
[26]
  Ratio EC50: 55
[27]
  inhibition: Active
[28]
  Ratio EC50: 10
[29]
  inhibition: inactive
[30]
  inhibition: Active
[31]
  Ratio EC50: 10
[32]
  Ratio: 9818
[33]
  Ratio EC50: 10
[34]
  inhibition: Active
[35]
  fold change (FC): 5
[36]
  inhibition: Active
[37]
  inhibition: Active
[38]
  Ratio EC50: 10
[39]
  inhibition: Active
[40]
  inhibition: inactive
